Experimental data: PubChem BioAssay (NCI)
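Following 48 hours of exposure in 96-well plates, responses at five concentrations were used to interpolate endpoints linearly. At the TGI there is no net growth.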

Tests used:
Test in all cases: DTP human tumour cell line panel, 48 h
786-0 renal = test system: 786-0 renal
A498 renal = test system: A498 renal
A549 NSCLC = test system: A549 NSCLC
ACHN renal = test system: ACHN renal
BT-549 breast = test system: BT-549 breast
CAKI-1 renal = test system: CAKI-1 renal
CCRF-CEM leukemia = test system: CCRF-CEM leukemia
COLO 205 colon = test system: COLO 205 colon
DU-145 prostate = test system: DU-145 prostate
EKVX NSCLC = test system: EKVX NSCLC
HCC-2998 colon = test system: HCC-2998 colon
HCT-116 colon = test system: HCT-116 colon
HCT-15 colon = test system: HCT-15 colon
HL-60(TB) leukemia = test system: HL-60(TB) leukemia
HOP-62 NSCLC = test system: HOP-62 NSCLC
HOP-92 NSCLC = test system: HOP-92 NSCLC
HS 578T breast = test system: HS 578T breast
HT29 colon = test system: HT29 colon
IGROV1 ovarian = test system: IGROV1 ovarian
K-562 leukemia = test system: K-562 leukemia
KM12 colon = test system: KM12 colon
LOX IMVI melanoma = test system: LOX IMVI melanoma
M14 melanoma = test system: M14 melanoma
MALME-3M melanoma = test system: MALME-3M melanoma
MCF7 breast = test system: MCF7 breast
MDA-MB-231 breast = test system: MDA-MB-231 breast
MDA-MB-435 = test system: MDA-MB-435
MDA-N = test system: MDA-N
MOLT-4 leukemia = test system: MOLT-4 leukemia
NCI-H226 lung = test system: NCI-H226 lung
NCI-H23 lung = test system: NCI-H23 lung
NCI-H460 lung = test system: NCI-H460 lung
NCI-H522 lung = test system: NCI-H522 lung
NCI/ADR-RES ovarian = test system: NCI/ADR-RES ovarian
OVCAR-3 ovarian = test system: OVCAR-3 ovarian
OVCAR-4 ovarian = test system: OVCAR-4 ovarian
OVCAR-5 ovarian = test system: OVCAR-5 ovarian
OVCAR-8 ovarian = test system: OVCAR-8 ovarian
PC-3 prostate = test system: PC-3 prostate
RPMI-8226 leukemia = test system: RPMI-8226 leukemia
RXF 393 renal = test system: RXF 393 renal
SF-268 CNS = test system: SF-268 CNS
SF-295 CNS = test system: SF-295 CNS
SF-539 CNS = test system: SF-539 CNS
SK-MEL-2 melanoma = test system: SK-MEL-2 melanoma
SK-MEL-28 melanoma = test system: SK-MEL-28 melanoma
SK-MEL-5 melanoma = test system: SK-MEL-5 melanoma
SK-OV-3 ovarian = test system: SK-OV-3 ovarian
SN12C renal = test system: SN12C renal
SNB-19 CNS = test system: SNB-19 CNS
SNB-75 CNS = test system: SNB-75 CNS
SR leukemia = test system: SR leukemia
SW-620 colon = test system: SW-620 colon
T-47D breast = test system: T-47D breast
TK-10 renal = test system: TK-10 renal
U251 CNS = test system: U251 CNS
UACC-257 melanoma = test system: UACC-257 melanoma
UACC-62 melanoma = test system: UACC-62 melanoma
UO-31 renal = test system: UO-31 renal

CN=C(N)/N=C(\N)Nc1cc2ccccc2c2ccccc12 showed a TGI (786-0 renal) of 25.5 µM, a TGI (A498 renal) of 23.3 µM and a TGI (A549 NSCLC) of 30.8 µM. For the same compound, the TGI (ACHN renal) was 26.3 µM, the TGI (BT-549 breast) was 29.3 µM and the TGI (CAKI-1 renal) was 31.2 µM. The TGI (CCRF-CEM leukemia) was 26.1 µM, the TGI (COLO 205 colon) was 28.2 µM and the TGI (DU-145 prostate) was 32.3 µM. The TGI (EKVX NSCLC) was 31.8 µM, the TGI (HCC-2998 colon) was 6.78 µM and the TGI (HCT-116 colon) was 26 µM. It also gave a TGI (HCT-15 colon) of 33.4 µM, a TGI (HL-60(TB) leukemia) of 19.8 µM and a TGI (HOP-62 NSCLC) of 33.4 µM. The TGI (HOP-92 NSCLC) was 40.8 µM, the TGI (HS 578T breast) was 42.3 µM and the TGI (HT29 colon) was 32.9 µM. For the same compound, the TGI (IGROV1 ovarian) was 35.5 µM, the TGI (K-562 leukemia) was 44.5 µM and the TGI (KM12 colon) was 34.6 µM. For the same compound, the TGI (LOX IMVI melanoma) was 29.7 µM, the TGI (M14 melanoma) was 33.4 µM and the TGI (MALME-3M melanoma) was 29.3 µM. For the same compound, the TGI (MCF7 breast) was 26.1 µM, the TGI (MDA-MB-231 breast) was 26.2 µM and the TGI (MDA-MB-435) was 32.4 µM. For the same compound, the TGI (MDA-N) was 27.8 µM, the TGI (MOLT-4 leukemia) was 34 µM and the TGI (NCI-H226 lung) was 37.4 µM. For the same compound, the TGI (NCI-H23 lung) was 33.2 µM, the TGI (NCI-H460 lung) was 24.4 µM and the TGI (NCI-H522 lung) was 26.2 µM. For the same compound, the TGI (NCI/ADR-RES ovarian) was 49.9 µM, the TGI (OVCAR-3 ovarian) was 35.8 µM and the TGI (OVCAR-4 ovarian) was 33.6 µM. The TGI (OVCAR-5 ovarian) was 33 µM, the TGI (OVCAR-8 ovarian) was 33.8 µM and the TGI (PC-3 prostate) was 29.5 µM. The TGI (RPMI-8226 leukemia) was 43.3 µM, the TGI (RXF 393 renal) was 31.9 µM and the TGI (SF-268 CNS) was 27.5 µM. For the same compound, the TGI (SF-295 CNS) was 32.5 µM, the TGI (SF-539 CNS) was 29.4 µM and the TGI (SK-MEL-2 melanoma) was 32.3 µM. The TGI (SK-MEL-28 melanoma) was 34.1 µM, the TGI (SK-MEL-5 melanoma) was 30.6 µM and the TGI (SK-OV-3 ovarian) was 32.9 µM. For the same compound, the TGI (SN12C renal) was 27.2 µM, the TGI (SNB-19 CNS) was 30.9 µM and the TGI (SNB-75 CNS) was 27.6 µM. For the same compound, the TGI (SR leukemia) was 47.8 µM, the TGI (SW-620 colon) was 34 µM and the TGI (T-47D breast) was 40.5 µM. It also gave a TGI (TK-10 renal) of 26 µM, a TGI (U251 CNS) of 28.5 µM and a TGI (UACC-257 melanoma) of 30.9 µM. The TGI (UACC-62 melanoma) was 28.2 µM and the TGI (UO-31 renal) was 27.4 µM.
